From ChEMBL document CHEMBL3877252, “Fluorescein hydrazones: A series of novel non-intercalative topoisomerase IIα catalytic inhibitors induce G1 arrest and apoptosis in breast and colon cancer cells” (Eur J Med Chem, 2017) come the findings set out here.

Assay [1] deals with T1, DNA topoisomerase 1 (Homo sapiens) (UniProt P11387).
T1 sequence (whole entry): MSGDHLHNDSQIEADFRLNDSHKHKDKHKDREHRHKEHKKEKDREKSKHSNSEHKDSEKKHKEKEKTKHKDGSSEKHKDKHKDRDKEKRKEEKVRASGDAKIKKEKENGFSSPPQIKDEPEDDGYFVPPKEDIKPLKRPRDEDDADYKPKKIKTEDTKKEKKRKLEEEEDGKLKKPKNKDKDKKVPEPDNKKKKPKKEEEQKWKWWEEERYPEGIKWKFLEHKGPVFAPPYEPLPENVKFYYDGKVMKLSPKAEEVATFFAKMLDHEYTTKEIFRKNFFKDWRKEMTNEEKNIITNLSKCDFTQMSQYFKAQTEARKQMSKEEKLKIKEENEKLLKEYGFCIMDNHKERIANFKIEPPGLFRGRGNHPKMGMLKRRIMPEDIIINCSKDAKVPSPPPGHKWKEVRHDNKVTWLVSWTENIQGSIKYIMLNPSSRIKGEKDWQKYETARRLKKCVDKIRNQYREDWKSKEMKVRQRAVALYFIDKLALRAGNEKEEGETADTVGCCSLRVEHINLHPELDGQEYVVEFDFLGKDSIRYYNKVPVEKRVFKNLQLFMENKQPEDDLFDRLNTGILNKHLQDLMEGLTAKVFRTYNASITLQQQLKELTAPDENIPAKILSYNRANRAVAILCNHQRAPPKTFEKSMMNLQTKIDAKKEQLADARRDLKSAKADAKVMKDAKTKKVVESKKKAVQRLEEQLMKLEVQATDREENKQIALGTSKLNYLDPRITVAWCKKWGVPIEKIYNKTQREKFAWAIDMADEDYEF
The assay is described as follows: Inhibition of human topoisomerase-1 assessed as inhibition of relaxation of supercoiled pBR322 plasmid DNA at 100 uM measured after 1 hr by ethidium bromide staining based agarose gel electrophoresis relative to control.

Assay [2] addresses T1, DNA topoisomerase 1 (Homo sapiens). The experiment in a line: Inhibition of human topoisomerase-1 assessed as inhibition of relaxation of supercoiled pBR322 plasmid DNA at 20 uM measured after 1 hr by ethidium bromide staining based agarose gel electrophoresis relative to control.
For assay [3], the target named is DNA topoisomerase 2-alpha (Homo sapiens) (UniProt P11388). The assay is described as follows: Inhibition of human topoisomerase-2 alpha assessed as inhibition of relaxation of supercoiled pBR322 plasmid DNA at 100 uM measured after 1 hr by ethidium bromide staining based agarose gel electrophoresis relative to control.
A short description of assay [4]: Antiproliferative activity against human T47D cells measured after 72 hrs by CCK8 assay. Format: functional, cell-based.
Assay [5] can be described thus: Antiproliferative activity against human DU145 cells measured after 72 hrs by CCK8 assay. The settings on record: DU-145, 72 h. The assay is classed as functional, cell-based. For orientation: Tetrazolium assays rely on reduction of a dye to a coloured formazan, in cell work by metabolically active cells.
The nature of assay [6]: Antiproliferative activity against human HCT15 cells measured after 72 hrs by CCK8 assay. Format: functional, cell-based. Conditions: HCT-15, 72 h.
Assay [7] is described as follows: Antiproliferative activity against human MCF7 cells measured after 72 hrs by CCK8 assay. Format: functional, cell-based. Conditions: MCF7, 72 h.

Structures can show the parent of a compound that is named as a salt. A value given as a limit tells only on which side of the number the result lay.

Sequence of DNA topoisomerase 2-alpha (Homo sapiens) (P11388 whole entry): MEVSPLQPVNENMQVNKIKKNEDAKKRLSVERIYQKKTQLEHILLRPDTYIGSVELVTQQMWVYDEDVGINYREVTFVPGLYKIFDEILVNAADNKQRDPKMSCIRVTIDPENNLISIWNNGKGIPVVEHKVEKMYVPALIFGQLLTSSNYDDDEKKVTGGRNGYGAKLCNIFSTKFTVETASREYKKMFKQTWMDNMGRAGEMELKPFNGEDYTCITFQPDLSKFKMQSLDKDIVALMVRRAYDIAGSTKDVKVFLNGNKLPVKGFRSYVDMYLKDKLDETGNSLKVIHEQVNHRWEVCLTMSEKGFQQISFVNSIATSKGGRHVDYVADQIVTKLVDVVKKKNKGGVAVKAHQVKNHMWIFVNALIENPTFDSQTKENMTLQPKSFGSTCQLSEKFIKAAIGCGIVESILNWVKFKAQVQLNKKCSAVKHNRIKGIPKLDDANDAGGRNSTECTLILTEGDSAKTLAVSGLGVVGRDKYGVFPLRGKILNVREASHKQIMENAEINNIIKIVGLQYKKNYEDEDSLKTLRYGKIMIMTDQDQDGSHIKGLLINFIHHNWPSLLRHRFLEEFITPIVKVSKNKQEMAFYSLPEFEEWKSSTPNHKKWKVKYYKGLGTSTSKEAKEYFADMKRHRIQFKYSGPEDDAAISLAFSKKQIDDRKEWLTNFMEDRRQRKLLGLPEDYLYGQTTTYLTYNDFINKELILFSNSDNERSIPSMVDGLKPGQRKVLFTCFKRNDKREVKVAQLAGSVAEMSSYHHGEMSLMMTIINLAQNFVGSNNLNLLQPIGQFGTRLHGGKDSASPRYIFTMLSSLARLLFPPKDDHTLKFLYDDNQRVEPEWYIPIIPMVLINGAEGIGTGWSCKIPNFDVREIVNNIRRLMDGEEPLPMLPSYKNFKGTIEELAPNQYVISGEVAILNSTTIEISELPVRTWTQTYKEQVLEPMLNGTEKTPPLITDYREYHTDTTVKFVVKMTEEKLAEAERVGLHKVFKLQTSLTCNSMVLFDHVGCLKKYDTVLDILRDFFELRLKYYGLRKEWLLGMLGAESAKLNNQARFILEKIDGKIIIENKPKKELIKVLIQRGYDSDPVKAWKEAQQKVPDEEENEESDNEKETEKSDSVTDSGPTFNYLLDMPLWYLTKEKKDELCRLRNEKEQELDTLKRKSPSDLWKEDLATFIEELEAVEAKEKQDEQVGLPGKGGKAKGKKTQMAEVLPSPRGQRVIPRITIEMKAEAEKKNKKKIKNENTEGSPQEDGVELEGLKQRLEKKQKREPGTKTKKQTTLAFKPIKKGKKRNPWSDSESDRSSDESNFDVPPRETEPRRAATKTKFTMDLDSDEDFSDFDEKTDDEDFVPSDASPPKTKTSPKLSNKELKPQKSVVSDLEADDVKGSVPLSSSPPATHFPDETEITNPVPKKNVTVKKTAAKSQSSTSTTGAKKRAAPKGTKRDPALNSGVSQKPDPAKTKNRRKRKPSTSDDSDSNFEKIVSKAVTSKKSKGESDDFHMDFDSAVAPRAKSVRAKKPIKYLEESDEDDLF

As to `CCOc1ccc2c(c1)Oc1cc(OC(=O)c3ccccc3OC)ccc1C21c2ccccc2C(=O)N1/N=C/c1ccc(OC)cc1` (stereo unspecified), the inhibition was determined as 35.6% in assay [1], 17.3% in assay [2] and 4.8% in assay [3].

For the compound `CC[C@@]1(O)C(=O)OCc2c1cc1n(c2=O)Cc2cc3ccccc3nc2-1` [CAMPTOTHECIN], the IC50 is 0.59 µM in assay [4], 0.38 µM in assay [5], 0.35 µM in assay [6] and 4.54 µM in assay [7].

Take `CCOc1ccc2c(c1)Oc1cc(OC(=O)c3ccccc3[N+](=O)[O-])ccc1C21c2ccccc2C(=O)N1/N=C/c1ccc(OC(=O)c2ccccc2[N+](=O)[O-])cc1` (stereo unspecified): the inhibition in assay [1] was determined as 22.7%; in assay [3], 13.2%.

`CCOc1ccc2c(c1)Oc1cc(OC(=O)c3ccccc3OC)ccc1C21c2ccccc2C(=O)N1/N=C/c1ccccc1OC(=O)c1ccccc1OC` (stereo unspecified): the inhibition in assay [1] turned out to be 0%; in assay [3] it was 10.3%. Moreover, the IC50 is 6.22 µM in assay [4], greater than 50 µM in assay [5], 1.56 µM in assay [6] and greater than 50 µM in assay [7].

Regarding `CCOc1ccc2c(c1)Oc1cc(OC(=O)c3ccccc3)ccc1C21c2ccccc2C(=O)N1/N=C/c1ccc(OC)c(OC(=O)c2ccccc2)c1` (stereo unspecified), the results for the inhibition in assay [1], in assay [2] and in assay [3] were 89.4%, 72% and 2.7%, respectively.

In the case of `CCOc1ccc2c(c1)Oc1cc(OC(=O)c3ccccc3)ccc1C21c2ccccc2C(=O)N1/N=C/c1ccccc1[N+](=O)[O-]` (stereo unspecified), the inhibition in assay [1] was determined as 55.4%; in assay [2], 0%; in assay [3], 6.1%.

`CCOc1ccc2c(c1)Oc1cc(OC(=O)c3ccccc3[N+](=O)[O-])ccc1C21c2ccccc2C(=O)N1/N=C/c1ccccc1OC` (stereo unspecified): the results for the inhibition in assay [1], in assay [2] and in assay [3] were 79.3%, 34.4% and 9%, respectively.

As for `CCOc1ccc2c(c1)Oc1cc(OC(=O)c3ccccc3Cl)ccc1C21c2ccccc2C(=O)N1/N=C/c1ccccc1OC` (stereo unspecified), the inhibition in assay [1] was determined as 55.2%; in assay [2], 30%; in assay [3], 7.8%. Moreover, the IC50 is greater than 50 µM in assay [4], 6.3 µM in assay [5], greater than 50 µM in assay [6] and greater than 50 µM in assay [7].

For `CCOc1ccc2c(c1)Oc1cc(OC(=O)c3ccccc3)ccc1C21c2ccccc2C(=O)N1/N=C/c1ccc(Cl)cc1` (stereo unspecified), the inhibition in assay [1] is 9.4%; in assay [3], 7%.

With `CCOc1ccc2c(c1)Oc1cc(OC(=O)c3ccccc3Cl)ccc1C21c2ccccc2C(=O)N1/N=C/c1ccc(OC)cc1` (stereo unspecified), the inhibition in assay [1] was found to be 3.3%; in assay [3], 5.6%.

As to `CCOc1ccc2c(c1)Oc1cc(OC(=O)c3ccccc3[N+](=O)[O-])ccc1C21c2ccccc2C(=O)N1/N=C/c1ccccc1OC(=O)c1ccccc1[N+](=O)[O-]` (stereo unspecified), the inhibition in assay [1] was determined as 0%; in assay [3], 25.7%. The IC50 in assay [4] is 5.45 µM; in assay [5] it was greater than 50 µM; in assay [6], greater than 50 µM; in assay [7], greater than 50 µM.

As to `CCOc1ccc2c(c1)Oc1cc(OC(=O)c3ccccc3Cl)ccc1C21c2ccccc2C(=O)N1/N=C/c1ccc(OC(=O)c2ccccc2Cl)cc1` (stereo unspecified), the inhibition in assay [1] amounted to 30.1%; in assay [2], 24.6%; in assay [3], 13.1%.

For the compound `CCOc1ccc2c(c1)Oc1cc(OC(=O)c3ccccc3)ccc1C21c2ccccc2C(=O)N1/N=C/c1ccc(OC)cc1` (stereo unspecified), the values for the inhibition in assay [1], in assay [2] and in assay [3] were 44.6%, 9.8% and 5.4%, respectively.

In the case of `CCOc1ccc2c(c1)Oc1cc(OC(=O)c3ccccc3[N+](=O)[O-])ccc1C21c2ccccc2C(=O)N1/N=C/c1ccc(OC)cc1` (stereo unspecified), the inhibition came to 54.6% in assay [1], 3.5% in assay [2] and 6% in assay [3].

Regarding `CCOc1ccc2c(c1)Oc1cc(OC(=O)c3ccccc3[N+](=O)[O-])ccc1C21c2ccccc2C(=O)N1/N=C/c1cccc(OC(=O)c2ccccc2[N+](=O)[O-])c1` (stereo unspecified), the inhibition worked out at 0% in assay [1] and 6.6% in assay [3].

Take `CCOc1ccc2c(c1)Oc1cc(OC(=O)c3ccccc3Cl)ccc1C21c2ccccc2C(=O)N1/N=C/c1ccc(OC)c(OC(=O)c2ccccc2Cl)c1` (stereo unspecified): the inhibition stood at 86.6% in assay [1], 1.7% in assay [2] and 4.8% in assay [3].

Take `CCOc1ccc2c(c1)Oc1cc(OC(=O)c3ccccc3[N+](=O)[O-])ccc1C21c2ccccc2C(=O)N1/N=C/c1ccccc1[N+](=O)[O-]` (stereo unspecified): the inhibition in assay [1] came to 16.9%; in assay [3], 7.5%.

For `COc1cccc2c1C(=O)c1c(O)c3c(c(O)c1C2=O)C[C@@](O)(C(=O)CO)C[C@@H]3O[C@H]1C[C@H](N)[C@H](O)[C@H](C)O1` [DOXORUBICIN HYDROCHLORIDE], the IC50 in assay [4] was 1.5 µM; in assay [5], 1.59 µM; in assay [6], 0.74 µM.

With `CCOc1ccc2c(c1)Oc1cc(OC(=O)c3ccccc3[N+](=O)[O-])ccc1C21c2ccccc2C(=O)N1/N=C/c1ccc(Cl)cc1` (stereo unspecified), the inhibition was determined as 12.9% in assay [1] and 10.8% in assay [3].

Turning to `CCOc1ccc2c(c1)Oc1cc(OC(=O)c3ccccc3)ccc1C21c2ccccc2C(=O)N1/N=C/c1ccc(OC(=O)c2ccccc2)cc1` (stereo unspecified), the inhibition in assay [1] stood at 75.3%; in assay [2] it was 9.2%; in assay [3], 7.9%.

Regarding `CCOc1ccc2c(c1)Oc1cc(OC(=O)c3ccccc3OC)ccc1C21c2ccccc2C(=O)N1/N=C/c1cccc(OC(=O)c2ccccc2OC)c1` (stereo unspecified), the values for the inhibition in assay [1] and in assay [3] were 0% and 2.8%, respectively.

As for `CCOc1ccc2c(c1)Oc1cc(OC(=O)c3ccccc3Cl)ccc1C21c2ccccc2C(=O)N1/N=C/c1cccc(OC(=O)c2ccccc2Cl)c1` (stereo unspecified), the values for the inhibition in assay [1] and in assay [3] were 0% and 7%, respectively.

As for `CCOc1ccc2c(c1)Oc1cc(OC(=O)c3ccccc3)ccc1C21c2ccccc2C(=O)N1/N=C/c1cccc(OC(=O)c2ccccc2)c1` (stereo unspecified), the inhibition is 0% in assay [1] and 6.7% in assay [3]. The IC50 is greater than 50 µM in assay [4], greater than 50 µM in assay [5], 28.9 µM in assay [6] and greater than 50 µM in assay [7].

In the case of `CCOc1ccc2c(c1)Oc1cc(OC(=O)c3ccccc3OC)ccc1C21c2ccccc2C(=O)N1/N=C/c1ccc(OC(=O)c2ccccc2OC)cc1` (stereo unspecified), the inhibition in assay [1] came out at 0%; in assay [3] it was 11.4%. In addition, the IC50 is 44.8 µM in assay [4], greater than 50 µM in assay [5], greater than 50 µM in assay [6] and greater than 50 µM in assay [7].

Regarding `CCOc1ccc2c(c1)Oc1cc(OC(=O)c3ccccc3[N+](=O)[O-])ccc1C21c2ccccc2C(=O)N1/N=C/c1ccc(OC)c(OC(=O)c2ccccc2[N+](=O)[O-])c1` (stereo unspecified), the results for the inhibition in assay [1], in assay [2] and in assay [3] were 87.2%, 15.8% and 3.9%, respectively.

For `CCOc1ccc2c(c1)Oc1cc(OC(=O)c3ccccc3OC)ccc1C21c2ccccc2C(=O)N1/N=C/c1ccc(Cl)cc1Cl` (stereo unspecified), the inhibition stood at 69.2% in assay [1], 10% in assay [2] and 25% in assay [3].

Turning to `CCOc1ccc2c(c1)Oc1cc(OC(=O)c3ccccc3)ccc1C21c2ccccc2C(=O)N1/N=C/c1ccccc1OC` (stereo unspecified), the results for the inhibition in assay [1], in assay [2] and in assay [3] were 81.3%, 48.1% and 6.9%, respectively.

As to `CCOc1ccc2c(c1)Oc1cc(OC(=O)c3ccccc3OC)ccc1C21c2ccccc2C(=O)N1/N=C/c1ccccc1[N+](=O)[O-]` (stereo unspecified), the inhibition in assay [1] is 19%; in assay [3] it was 6.2%.

Consider `CCOc1ccc2c(c1)Oc1cc(OC(=O)c3ccccc3)ccc1C21c2ccccc2C(=O)N1/N=C/c1ccc(Cl)cc1Cl` (stereo unspecified), for which the inhibition in assay [1] amounted to 99.9%; in assay [2] it was 2.5%; in assay [3], 25.3%.

On to `CCOc1ccc2c(c1)Oc1cc(OC(=O)c3ccccc3OC)ccc1C21c2ccccc2C(=O)N1/N=C/c1ccc(Cl)cc1` (stereo unspecified), for which the inhibition in assay [1] amounted to 4.2%; in assay [3] it was 6.5%.

Take `CCOc1ccc2c(c1)Oc1cc(OC(=O)c3ccccc3Cl)ccc1C21c2ccccc2C(=O)N1/N=C/c1ccc(Cl)cc1Cl` (stereo unspecified): the inhibition in assay [1] came out at 14.4%; in assay [3], 8.5%.

Consider `CCOc1ccc2c(c1)Oc1cc(OC(=O)c3ccccc3Cl)ccc1C21c2ccccc2C(=O)N1/N=C/c1ccccc1OC(=O)c1ccccc1Cl` (stereo unspecified), for which the inhibition in assay [1] was found to be 0%; in assay [3], 11.1%.

Broadly, the inhibition is how much of the control response was suppressed. As a reminder, the IC50 is the concentration that inhibits the measured activity by half.
